Columns and labels:
Enterobacteriaceae = format: biochemical; conditions: all CTX-M producers (n=147); tazobactam added to cefotaxime well
Procedure: Strains were isolated on Mueller-Hinton agar (Biorad, Marnes-la-Coquette, France) and incubated at 37° C. for 16 h to 24 h before performing the NDP rapid ESBL test as follows. One calibrated inoculated loop (10 μl) of the tested strain was resuspended in 150 μl of 20 mM Tris-HCl lysis buffer previously distributed in Microbead tubes (Ultraclean Microbial DNA isolation kit Bead Tubes, MO BIO Laboratories, Carlsbad, USA). Mechanical lysis of bacteria was performed by strong agitation of Microbead tubes using a vortex adapter (MO BIO Laboratories) for 30 min at room temperature. This bacterial suspension was centrifuged at 10,000×g at room temperature for 5 min. Thirty μl of the supernatant was mixed in a well of a 96-well tray with 100 μl of a 1 ml solution made of 3 mg of purified cefotaxime sodium salt (Sigma-Aldrich, Saint-Quentin-Fallavier, France) in a pH 7.8 phenol red solution. […] The phenol red solution was made by taking 2 ml of a concentrated pH 8 phenol solution (made from a mixture of phenol red 0.5% in distilled water) to which 16.6 ml of distilled water was added. The pH value was then adjusted to a 7.8 value by adding drops of a 1 N NaOH solution. Mixture of the phenol red solution and the enzymatic suspension being tested was incubated at 37° C. for 30 min. Similarly, culture extracts were analyzed in wells containing cefotaxime and tazobactam (4 mg/ml). […]

P. stuartii = assay: Susceptibility testing, MIC by Etest; format: cell-based, Providencia stuartii; conditions: P. stuartii TEM-24, n=1
Procedure: (§1) Susceptibility testing was performed by determining MIC values using the Etest® (AB bioMérieux; Solna, Sweden) on Mueller-Hinton agar plates at 37° C. and results were recorded according to US guidelines (CLSI), as updated in 2012 (2). The breakpoints for cefotaxime are susceptible (S)≤1 and resistant (R)≥4 μg/ml, and for ceftazidime S≤4 and R≥16 μg/ml.

E. cloacae = assay: Susceptibility testing, MIC by Etest; format: cell-based, Enterobacter cloacae
Procedure: as §1

C. freundii = assay: Susceptibility testing, MIC by Etest; format: cell-based, Citrobacter freundii
Procedure: as §1

E. coli = assay: Susceptibility testing, MIC by Etest; format: cell-based, Escherichia coli
Procedure: as §1

K. pneumoniae = assay: Susceptibility testing, MIC by Etest; format: cell-based, Klebsiella pneumoniae
Procedure: as §1

P. mirabilis = assay: Susceptibility testing, MIC by Etest; format: cell-based, Proteus mirabilis
Procedure: as §1

S. enterica = assay: Susceptibility testing, MIC by Etest; format: cell-based, Salmonella enterica
Procedure: as §1

M. morganii = assay: Susceptibility testing, MIC by Etest; format: cell-based, Morganella morganii; conditions: M. morganii Wild-type, chromosome-encoded cephalosporinase, n=2
Procedure: as §1

S. ficaria = assay: Susceptibility testing, MIC by Etest; format: cell-based; conditions: S. ficaria Wild-type, chromosome-encoded cephalosporinase, n=1
Procedure: as §1

C. brakii = assay: Susceptibility testing, MIC by Etest; format: cell-based; conditions: C. brakii Wild-type, chromosome-encoded cephalosporinase, n=1
Procedure: as §1

E. sakazakii = assay: Susceptibility testing, MIC by Etest; format: cell-based; conditions: overexpressed chromosome-encoded cephalosporinase, n=1
Procedure: as §1

S. marcescens = assay: Susceptibility testing, MIC by Etest; format: cell-based, Serratia marcescens; conditions: S. marcescens Wild-type, chromosome-encoded cephalosporinase, n=2
Procedure: as §1

K. oxytoca = assay: Susceptibility testing, MIC by Etest; format: cell-based, Klebsiella oxytoca; conditions: K. oxytoca Wild-type penicillinase, n=1
Procedure: as §1

E. aerogenes = assay: Susceptibility testing, MIC by Etest; format: cell-based, Enterobacter aerogenes
Procedure: as §1

Q: For `C[C@]1(Cn2ccnn2)[C@H](C(=O)O)N2C(=O)C[C@H]2S1(=O)=O` [tazobactam], which “color of the wells” value (Enterobacteriaceae) is on record?
A: The value was “remained red”.

Q: `CC(C)(O/N=C(\C(=O)N[C@@H]1C(=O)N2C(C(=O)[O-])=C(C[n+]3ccccc3)CS[C@H]12)c1csc(N)n1)C(=O)O` [CAZ, ceftazidime] was tested. Which MICs range (P. stuartii) did it give?
A: Its MICs range is 8 µg/mL.

Q: And the MICs range (E. cloacae; E. cloacae CTX-M-14, n=1)?
A: The MICs range was 8 µg/mL.

Q: What about the MICs range (E. cloacae; E. cloacae CTX-M-15, n=17) of the same compound?
A: Its MICs range is 2 to 16 µg/mL.

Q: What about the MICs range (E. cloacae; E. cloacae GES-5, n=1) of the same compound?
A: The MICs range was greater than 32 µg/mL.

Q: And the MICs range (E. cloacae; E. cloacae PER-1, n=1)?
A: Its MICs range is greater than 32 µg/mL.

Q: And the MICs range (E. cloacae; E. cloacae SHV-5, n=1)?
A: The MICs range was greater than 32 µg/mL.

Q: What about the MICs range (E. cloacae; E. cloacae TEM-3, n=2) of the same compound?
A: The MICs range was greater than 16 µg/mL.

Q: And the MICs range (E. cloacae; E. cloacae VEB-1, n=1)?
A: Its MICs range is greater than 32 µg/mL.

Q: And the MICs range (E. cloacae; E. cloacae Wild-type, chromosome-encoded cephalosporinase, n=5)?
A: Its MICs range is 0.12 to 0.38 µg/mL.

Q: What about the MICs range (E. cloacae; E. cloacae, overexpressed chromosome-encoded cephalosporinase, n=2) of the same compound?
A: The MICs range was greater than 32 µg/mL.

Q: And the MICs range (E. cloacae; E. cloacae, overexpressed chromosome-encoded cephalosporinase, n=3)?
A: The MICs range was greater than 32 µg/mL.

Q: And the MICs range (C. freundii; C. freundii TEM-3, n=1)?
A: Its MICs range is greater than 16 µg/mL.

Q: What about the MICs range (C. freundii; C. freundii Wild-type, chromosome-encoded cephalosporinase, n=1) of the same compound?
A: Its MICs range is 0.25 µg/mL.

Q: And the MICs range (E. coli; E. coli ACC-1, n=1, first line)?
A: The MICs range was greater than 32 µg/mL.

Q: What about the MICs range (E. coli; E. coli ACC-1, n=1, second line) of the same compound?
A: The MICs range was greater than 32 µg/mL.

Q: And the MICs range (E. coli; E. coli CMY-2, n=1)?
A: Its MICs range is greater than 32 µg/mL.

Q: And the MICs range (E. coli; E. coli CTX-M-1, n=16)?
A: Its MICs range is 0.5 to 2 µg/mL.

Q: And the MICs range (E. coli; E. coli CTX-M-2, n=3)?
A: The MICs range was 1.5 to 4 µg/mL.

Q: What about the MICs range (E. coli; E. coli CTX-M-3, n=1) of the same compound?
A: Its MICs range is 4 µg/mL.

Q: And the MICs range (E. coli; E. coli CTX-M-9, n=1)?
A: The MICs range was 0.19 µg/mL.

Q: What about the MICs range (E. coli; E. coli CTX-M-14, n=15) of the same compound?
A: The MICs range was 0.5 to 4 µg/mL.

Q: What about the MICs range (E. coli; E. coli CTX-M-15, n=46) of the same compound?
A: Its MICs range is 0.5 to 24 µg/mL.

Q: And the MICs range (E. coli; E. coli CTX-M-27, n=6)?
A: Its MICs range is 0.5 to 4 µg/mL.

Q: What about the MICs range (E. coli; E. coli CTX-M-28, n=1) of the same compound?
A: Its MICs range is 8 µg/mL.

Q: And the MICs range (E. coli; E. coli CTX-M-32, n=1)?
A: Its MICs range is 6 µg/mL.

Q: What about the MICs range (E. coli; E. coli CTX-M-97, n=1) of the same compound?
A: Its MICs range is 2 µg/mL.

Q: What about the MICs range (E. coli; E. coli DHA-1, n=1) of the same compound?
A: The MICs range was 1 µg/mL.

Q: What about the MICs range (E. coli; E. coli SHV-2a, n=3) of the same compound?
A: The MICs range was 2 to 4 µg/mL.

Q: And the MICs range (E. coli; E. coli SHV-3, n=1)?
A: Its MICs range is greater than 32 µg/mL.

Q: What about the MICs range (E. coli; E. coli SHV-12, n=1) of the same compound?
A: Its MICs range is 8 µg/mL.

Q: And the MICs range (E. coli; E. coli TEM-1 penicillinase, n=5)?
A: The MICs range was 0.09 to 0.12 µg/mL.

Q: What about the MICs range (E. coli; E. coli TEM-12, n=1) of the same compound?
A: Its MICs range is 8 µg/mL.

Q: And the MICs range (E. coli; E. coli TEM-29, n=2)?
A: The MICs range was 4 µg/mL.

Q: And the MICs range (E. coli; E. coli TEM-133, n=1)?
A: Its MICs range is 12 µg/mL.

Q: What about the MICs range (E. coli; E. coli VEB-1, n=1) of the same compound?
A: The MICs range was greater than 32 µg/mL.

Q: What about the MICs range (E. coli; E. coli Wild-type, no resistance, n=5) of the same compound?
A: The MICs range was 0.05 to 0.19 µg/mL.

Q: And the MICs range (K. pneumoniae; K. pneumoniae CTX-M-3, n=1)?
A: The MICs range was 1.5 µg/mL.

Q: And the MICs range (K. pneumoniae; K. pneumoniae CTX-M-14, n=3)?
A: Its MICs range is 0.5 to 6 µg/mL.

Q: And the MICs range (K. pneumoniae; K. pneumoniae DHA-1, n=1)?
A: The MICs range was greater than 32 µg/mL.

Q: And the MICs range (K. pneumoniae; K. pneumoniae DHA-2, n=1)?
A: Its MICs range is greater than 32 µg/mL.

Q: What about the MICs range (K. pneumoniae; K. pneumoniae GES-1, n=1) of the same compound?
A: Its MICs range is 4 µg/mL.

Q: And the MICs range (K. pneumoniae; K. pneumoniae SHV-2a, n=2)?
A: The MICs range was 1 to 4 µg/mL.

Q: And the MICs range (K. pneumoniae; K. pneumoniae SHV-2a, n=4)?
A: Its MICs range is 2 to 4 µg/mL.

Q: What about the MICs range (K. pneumoniae; K. pneumoniae SHV-5, n=2) of the same compound?
A: Its MICs range is 16 to 32 µg/mL.

Q: And the MICs range (K. pneumoniae; K. pneumoniae SHV-12, n=1)?
A: Its MICs range is 8 µg/mL.

Q: And the MICs range (K. pneumoniae; K. pneumoniae SHV-12, n=2)?
A: The MICs range was 16 to 32 µg/mL.

Q: And the MICs range (K. pneumoniae; K. pneumoniae SHV-28, n=3)?
A: The MICs range was greater than 32 µg/mL.

Q: What about the MICs range (K. pneumoniae; K. pneumoniae TEM-52, n=2) of the same compound?
A: The MICs range was greater than 32 µg/mL.

Q: And the MICs range (K. pneumoniae; K. pneumoniae Wild-type penicillinase, n=2)?
A: The MICs range was 0.03 µg/mL.

Q: What about the MICs range (P. mirabilis; P. mirabilis ACC-1, n=1) of the same compound?
A: Its MICs range is greater than 32 µg/mL.

Q: What about the MICs range (P. mirabilis; P. mirabilis CTX-M-14, n=1) of the same compound?
A: Its MICs range is 0.75 µg/mL.

Q: And the MICs range (P. mirabilis; P. mirabilis CTX-M-15, n=1)?
A: Its MICs range is 8 µg/mL.

Q: And the MICs range (P. mirabilis; P. mirabilis PER-1, n=1)?
A: Its MICs range is greater than 32 µg/mL.

Q: And the MICs range (P. mirabilis; P. mirabilis TEM-21, n=1)?
A: Its MICs range is 4 µg/mL.

Q: And the MICs range (P. mirabilis; P. mirabilis TEM-52, n=1)?
A: Its MICs range is 16 µg/mL.

Q: And the MICs range (S. enterica; S. enterica CTX-M-1, n=1)?
A: The MICs range was 0.75 µg/mL.

Q: And the MICs range (S. enterica; S. enterica Wild-type, no resistance, n=1)?
A: The MICs range was 0.19 µg/mL.

Q: What about the MICs range (M. morganii) of the same compound?
A: Its MICs range is 0.09 to 1 µg/mL.

Q: What about the MICs range (S. ficaria) of the same compound?
A: Its MICs range is 0.09 µg/mL.

Q: And the MICs range (C. brakii)?
A: Its MICs range is 0.25 µg/mL.

Q: What about the MICs range (E. sakazakii) of the same compound?
A: Its MICs range is greater than 32 µg/mL.

Q: And the MICs range (S. marcescens)?
A: The MICs range was 0.09 µg/mL.

Q: And the MICs range (K. oxytoca)?
A: Its MICs range is 0.06 µg/mL.

Q: What about the MICs range (E. aerogenes; E. aerogenes TEM-121, n=1) of the same compound?
A: Its MICs range is greater than 32 µg/mL.

Q: What about the MICs range (E. aerogenes; E. aerogenes Wild-type, chromosome-encoded cephalosporinase, n=1) of the same compound?
A: Its MICs range is 0.25 µg/mL.

Reference: patent publication US10793892B2, “Method for detecting the presence of expanded spectrum β-lactamase-producing bacteria in a sample” (INSERM (INSTITUT NATIONAL DE LA SANTE ET DE LA RECHERCHE …, priority 2011, dated 2020)
